# Laboratory results reported in patent US20040006236A1, “Diaminopropionic acid derivatives” (priority 1999, published 2004).
# Tests used:
# [1] = tested on: Mac-1 and LFA-1-mediated neutrophil binding to immobilized ICAM-1; assay: Neutrophil (Mac-1 and LFA-1)/ICAM-1 cell-based screening assay; conditions: human neutrophils
# Protocol: Both Mac-1 and LFA-1 are expressed on the cell surface of neutrophils. The ability of antagonists to inhibit Mac-1 and LFA-1-mediated neutrophil binding to immobilized ICAM-1 was quantitated by a cell based assay. Typically, fusion protein consisting of the entire extracellular domain of human ICAM-1 and the Fc domain of human IgG (5dICAM-Ig) was coated onto 96 well microtiter plates (1 μg in 100 μL TBS) overnight at 4° C. The plates were then blocked with 150 μL of 10% PVP in TBS for 1 h at 37° C. Plates were washed 3 times (150 μL each) with TBS. Human neutrophils were purified from whole blood from healthy volunteers using LSM (ICN). Cells (8×10^6/mL) were fluorescently labeled with 6-carboxyfluorescein (100 μg/mL) for 40 min in IMDM/1 mM MgCl2/1.2 mM CaCl2 as described in Example 287. Cells (8×10^6/mL) were stimulated with f-Met-Leu-Phe (10 μM) for 5 min at room temperature just prior to being used in the assay, and diluted to 2×10^6 cells/mL with RPMI/0.05% BSA/0.2 mM MnCl2. Stock solutions (10 mM) of test compounds were diluted to 2.5 mM with DMSO. A series of 1:4 dilutions in DMSO were performed to achieve a concentration range of 38.2 nM-2.5 mM. Each sample was further diluted 50-fold with RPMI/0.05% BSA/0.2 mM MnCl2. Equal volumes of labeled cells were then added to assay tubes containing diluted compound. Final concentrations of compound tested in the assay ranged from 0.38 nM-25 μM with a cell concentration of 1×10^6 per mL. Cells were incubated for 10 min at 37° C. with gentle shaking, then dispensed (100 μL per well) onto ICAM-1 coated plates and incubated for 30 min at 37° C./5% CO2. Unbound cells were washed and plates were read on a Cytofluor™ 2300 (Millipore) as described in Example 384.
# BALB/c mice = assay: Croton oil-induced dermatitis in mice (ear swelling); type: in vivo; conditions: compared to distilled water pumps
# Protocol: Adult female BALB/c mice (20-25 g) received 10 μl of 20 mg/ml of croton oil in 80% acetone:20% olive oil vehicle on each side of the right ear (total of 20 μl per mouse). All the mice received a similar volume of the acetone/olive oil vehicle on the contralateral left ear. Negative control mice received vehicle on both ears. Six hours thereafter, the ear swelling on both ears was measured with microcalipers. The ear swelling response was determined by subtraction of the swelling measurements of the left ear from that of the right ear for each individual mouse.
# Inhibitors were administered to mice via 3 day Alzet osmotic minipumps. Pumps containing different concentrations of the inhibitors were implanted on the backs of anaesthetized mice 2 days prior to croton oil application. Additional mice received an equal volume of distilled water in pumps. For mice receiving antibodies, anti-CD18 antibody (HB226) or control rat IgG were administered i.p. at 200 μg per mouse 18 hours prior to croton oil application.
# In table 11, the swelling response in antibody-treated animals is compared to the swelling response in rat IgG-treated animals. The swelling response in compound-treated animals is compared to the swelling-response in mice that had received pumps containing distilled water
# C57BI/6 mice = assay: Delayed type hypersensitivity in mice (mBSA paw swelling); type: in vivo; conditions: compared to distilled water pumps
# Protocol: Sensitization: On day 0, adult female C57BI/6 mice (20-25 g) received 50 μl each of a 1:1 mixture of 10 mg/ml methylated bovine serum albumin (mBSA) in phosphate buffered saline (PBS) and complete Freund's adjuvant (CFA) intradermally at two sites on shaved bellies (total volume 100 μl per mouse). Control mice received an equal volume of a PBS/CFA mixture (unsensitized).
# Challenge: On day 7, the mice received 20 μl I of 5 mg/ml mBSA in PBS injected into the right hind paw. The contralateral left paw of each mouse was injected with an identical volume of PBS. After 24 hours, the paw swelling of both the hind feet of all mice was measured with microcalipers. To determine the paw swelling response, measurements of the left paw were subtracted from that of the right paw for each individual mouse.
# At the time of challenge, anaesthetized mice were implanted on their backs with Alzet osmotic minipumps which delivered a constant volume per hour of the inhibitors (e.g. Example 226) subcutaneously. The pumps delivered a volume 200 μl over a period of 1 day. Different doses of the compounds were tested viz. 850, 250 and 85 mg/kg/day. The inhibitors were formulated in distilled water. Control mice received pumps containing distilled water. For antibody treatment groups, mice received 200 μg of anti-mouse LFA-1 (Mi7), anti-mouse Mac-1 (M1/70) or control rat IgG intraperitoneally on the day of challenge.
# In table 10, the swelling response in antibody-treated animals is compared to the swelling response in rat IgG-treated animals. The swelling response in compound-treated animals is compared to the swelling-response in mice that had received pumps containing distilled water
Structure (SMILES),IC50 [1] [µM],also measured
Cc1cc(C(=O)NCc2cccc(O)c2)ccc1C(=O)N[C@@H](CNC(=O)c1cccs1)C(=O)O [Example 323],0.061,–
"O=C(NCc1cccc(O)c1)c1ccc(C(=O)N[C@@H](CNC(=O)c2cc(F)cc(F)c2)C(=O)O)c(Cl)c1 [Example 252, N-[2-chloro-4-[[[(3-hydroxyphenyl)methyl]amino]carbonyl]benzoyl]-3-(3,5-difluorobenzoyl)amino-L-alanine]",0.034,–
O=C(NCc1cccc(O)c1)c1ccc(C(=O)N[C@@H](CNC(=O)c2ccc3c(c2)S(=O)(=O)c2ccccc2C3=O)C(=O)O)c(Cl)c1 [Example 192],0.634,–
O=C(CC1CCCCC1)NC[C@H](NC(=O)c1ccc(C(=O)NCc2cccc(O)c2)cc1Cl)C(=O)O [Example 78],0.253,–
Cc1cc(C(=O)N[C@H](C)c2cccc3ccccc23)cc(C)c1C(=O)N[C@@H](CNC(=O)c1cccs1)C(=O)O [Example 333],0.014,–
Cc1cc(C(=O)NCc2cccc(O)c2)cc(C)c1C(=O)N[C@@H](CNC(=O)c1cccs1)C(=O)O [Example 330],0.0067,–
"Cc1cc(C(=O)NCc2cccc(O)c2)cc(C)c1C(=O)N[C@@H](CNC(=O)c1ccsc1)C(=O)O [Example 336, N-[2,6-dimethyl-4-[[[(3-hydroxyphenyl)methyl]amino]carbonyl]benzoyl]-3-(thiophene-3-carbonyl)amino-L-alanine]",0.0061,–
"Cc1cc(C(=O)NCc2cccc(O)c2)cc(C)c1C(=O)N[C@@H](CNC(=O)c1cc(F)cc(F)c1)C(=O)O [Example 337, N-[2,6-dimethyl-4-[[[(3-hydroxyphenyl)methyl]amino]carbonyl]benzoyl]-3-(3,5-difluorobenzoylamino)-L-alanine]",0.012,–
"O=C(NCc1cccc2[nH]ncc12)c1ccc(C(=O)N[C@@H](CNC(=O)c2cccs2)C(=O)O)c(Cl)c1 [Example 327, N-[2-chloro-4-[[[(1H-indazol-4-yl)methyl]amino]carbonyl]benzoyl]-3-(thiophene-2-carbonyl)amino-L-alanine]",0.02,–
"O=C(NCc1cccc(O)c1)c1ccc(C(=O)N[C@@H](CNC(=O)c2ccccc2)C(=O)O)c(Cl)c1 [Example 302, 3-benzoylamino-N-[2-chloro-4-[[[(3-hydroxyphenyl)methyl]amino]carbonyl]benzoyl]-L-alanine]",0.041,–
"O=C(NCc1cccc(O)c1)c1ccc(C(=O)N[C@@H](CNC(=O)c2ccoc2)C(=O)O)c(Cl)c1 [Example 259, N-[2-chloro-4-[[[(3-hydroxyphenyl)methyl]amino]carbonyl]benzoyl]-3-(furan-3-carbonyl)amino-L-alanine]",0.021,–
O=C(NC[C@H](NC(=O)c1c(F)cccc1Cl)C(=O)O)c1ccc2[nH]nnc2c1 [Example 226],–,"Percentage inhibition of ear swelling in response to croton oil application (BALB/c mice; 1 μM, osmotic minipump): 8%; Percentage inhibition of ear swelling in response to croton oil application (BALB/c mice; 2 μM circulating serum level (64 mg/kg/day, osmotic minipump)): 48%; Percentage inhibition of ear swelling in response to croton oil application (BALB/c mice; 4 μM circulating serum level (250 mg/kg/day, osmotic minipump)): 62%; Percentage inhibition of paw swelling in response to challenge with methylated bovine serum albumin (C57BI/6 mice; 1 μM, s.c. osmotic minipump): −2%; Percentage inhibition of paw swelling in response to challenge with methylated bovine serum albumin (C57BI/6 mice; 3 μM circulating serum level (250 mg/kg/day, s.c. osmotic minipump)): 52%; Percentage inhibition of paw swelling in response to challenge with methylated bovine serum albumin (C57BI/6 mice; 9 μM circulating serum level (850 mg/kg/day, s.c. osmotic minipump)): 77%"
"O=C(NCc1cccc(O)c1)c1ccc(C(=O)N[C@@H](CNC(=O)c2cccs2)C(=O)O)c(Cl)c1 [Example 303, N-[2-chloro-4-[[[(3-hydroxyphenyl)methyl]amino]carbonyl]benzoyl]-3-(thiophene-2-carbonyl)amino-L-alanine]",0.016,–

# Second part, led by results:
IC50 [1] [µM],Structure (SMILES),also measured
0.003,"Cc1cc(C(=O)NCc2cccc(O)c2)cc(Cl)c1C(=O)N[C@@H](CNC(=O)c1ccsc1)C(=O)O [Example 339, N-[2-chloro-4-[[[(3-hydroxyphenyl)methyl]amino]carbonyl]-6-methylbenzoyl]-3-[(thiophene-3-carbonyl)amino]-L-alanine]",–
0.0019,"O=C(NCc1cccc(O)c1)c1cc(Cl)c(C(=O)N[C@@H](CNC(=O)c2ccsc2)C(=O)O)c(Cl)c1 [Example 343, N-[2,6-dichloro-4-[[[(3-hydroxyphenyl)methyl]amino]carbonyl]benzoyl]-3-[(thiophene-3-carbonyl)amino]-L-alanine]",–
0.0039,"Cc1cc(C(=O)NCc2cccc(O)c2)cc(Cl)c1C(=O)N[C@@H](CNC(=O)c1cccs1)C(=O)O [Example 338, N-[2-chloro-4-[[[(3-hydroxyphenyl)methyl]amino]carbonyl]-6-methylbenzoyl]-3-[(thiophene-2-carbonyl)amino]-L-alanine]",–
0.0017,"O=C(NCc1cccc(O)c1)c1cc(Cl)c(C(=O)N[C@@H](CNC(=O)c2cc(F)cc(F)c2)C(=O)O)c(Cl)c1 [Example 344, N-[2,6-dichloro-4-[[[(3-hydroxyphenyl)methyl]amino]carbonyl]benzoyl]-3-[(3,5-difluorobenzoyl)amino]-L-alanine]",–
0.0001,"O=C(NCc1cccc(O)c1)c1cc(Cl)c(C(=O)N[C@@H](CNC(=O)c2cc(O)cc(O)c2)C(=O)O)c(Cl)c1 [Example 345, N-[2,6-dichloro-4-[[[(3-hydroxyphenyl)methyl]amino]carbonyl]benzoyl]-3-(3,5-dihydroxybenzoylamino)-L-alanine]",–
0.004,"Cc1cc(C(=O)NCc2cccc(O)c2)cc(Cl)c1C(=O)N[C@@H](CNC(=O)c1cc(F)cc(F)c1)C(=O)O [Example 340, N-[2-chloro-4-[[[(3-hydroxyphenyl)methyl]amino]carbonyl]-6-methylbenzoyl]-3-[(3,5-difluorobenzoyl)amino]-L-alanine]",–
0.0023,"O=C(NCc1cccc(O)c1)c1cc(Cl)c(C(=O)N[C@@H](CNC(=O)c2cccs2)C(=O)O)c(Cl)c1 [Example 342, N-[2,6-dichloro-4-[[[(3-hydroxyphenyl)methyl]amino]carbonyl]benzoyl]-3-[(thiophene-2-carbonyl)amino]-L-alanine]",–
